# System: bacteria
# Experiment: MIC, broth dilution method (antibacterial activity)
# Format: cell-based
# Settings: optical density of organisms with and without test compound, bacterial species not stated
# Description: Antibacterial activity can be determined by several standard methods well known by those skilled in the art, including disc diffusions methods, broth dilution minimal inhibitory concentration (MIC) methods, etc., including the detailed method outlined below.
# MIC, Broth Dilution Method
# Cultures of bacteria are initially brought up from the freezer stocks onto chocolate agar plates by streaking a loop-full, then incubated for 18 hours at 35-37° C. in a 5% CO2 incubator.
# Five to 10 colonies are picked from the chocolate agar plate for subculture to Brain-Heart Infusion (BHI) broth or Mueller Hinton broth or BHI containing 4% serum and incubated as described.
# Evaluate the optical density of the organisms with and without the test compound. The optical density of the organisms in the presence of an active compound will be less than the optical density of the same organism untreated. The activity of the compounds is described as either negative or the lowest concentration inhibiting growth. The results are depicted in Table III, where +/− represents the least activity and ++++ represents the greatest activity.
row,SMILES,Antibacterial Activity
1,"COc1cc2c(cc1N1CCN(C(=O)OCc3ccccc3)CC1)CCC(C(=O)OC(C)(C)C)C(=O)N2Cc1cccc(F)c1 (racemic) [Example 31, 7-[(4-Benzyloxycarbonyl)piperazin-1-yl]-3(R,S)-tert-butoxycarbonyl-1-(3-fluorobenzyl)-8-methoxy-2,3,4,5-tetrahydro-1H-1-benzazepine-2-one]",++++
2,CCN1C(=O)CCCc2cc(N3CCN(C)CC3)c(OC)cc21 [Example 10],+/−
3,"CC(C)(C)[Si](C)(C)Oc1ccc2c(c1)NC(=O)CCC2 [Example 36, 8-(tert-butyldimethylsilyloxy)-2,3,4,5-tetrahydro-1H-1-benzazepine-2-one]",++++

# System: not given
# Experiment: not given
# Settings: not given
row,SMILES,melting point
1,"CCOC(=O)C1CCc2ccc(OC)cc2NC1=O (racemic) [Example 3, 3(R,S)-Ethoxycarbonyl-8-methoxy-2,3,4,5-tetrahydro-1H-1-benzazepine-2-one]",89 to 91 °C
2,"CCN1C(=O)C(C(=O)O)CCc2ccc(OC)cc21 (racemic) [Example 5, 3(R,S)-Carboxyl-1-ethyl-8-methoxy-2,3,4,5-tetrahydro-1H-1-benzazepine-2-one]",120 to 121 °C
3,"COc1ccc2c(c1)NC(=O)C(C(=O)OC(C)(C)C)CC2 (racemic) [Example 11, 3(R,S)-tert-Butoxycarbonyl-8-methoxy-2,3,4,5-tetrahydro-1H-1-benzazepine-2-one]",145 to 147 °C
4,"CCN1C(=O)C(C(=O)OC(C)(C)C)CCc2ccc(OC)cc21 (racemic) [Example 12, 3(R,S)-tert-Butoxycarbonyl-1-ethyl-8-methoxy-2,3,4,5-tetrahydro-1H-1-benzazepine-2-one]",132 to 133 °C
5,"CCN1C(=O)C(C(=O)OC(C)(C)C)CCc2cc(Br)c(OC)cc21 (racemic) [Example 13, 7-Bromo-3(R,S)-tert-butoxycarbonyl-1-ethyl-8-methoxy-2,3,4,5-tetrahydro-1H-1-benzazepine-2-one]",131 to 132 °C
6,"CCN1C(=O)C(C(=O)O)CCc2cc(N3CCNCC3)c(OC)cc21.Cl (racemic) [Example 15, 3(R,S)-Carboxyl-1-ethyl-8-methoxy-7-(piperazin-1-yl)-2,3,4,5-tetrahydro-1H-1-benzazepine-2-one Hydrochloride]",173 to 176 °C (dec.)
7,"CCN1C(=O)C(C(=O)OC(C)(C)C)C=Cc2ccc(OC)cc21 (racemic) [Example 16, 3(R,S)-tert-Butoxycarbonyl-1-ethyl-8-methoxy-2,3-dihydro-1H-1-benzazepine-2-one]",173 to 174 °C
8,"CCN1C(=O)C(C(=O)O)CCc2cc(Br)c(OC)cc21 (racemic) [Example 17, 7-Bromo-3(R,S)-carboxyl-1-ethyl-8-methoxy-2,3,4,5tetrahydro-1H-1-benzazepine-2-one]",188 to 189 °C (dec.)
9,"CCN1C(=O)C(C(=O)OC(C)(C)C)CCc2cc(N3CCNCC3)c(OC)cc21 (racemic) [Example 18, 3(R,S)-tert-Butoxycarbonyl-1-ethyl-8-methoxy-7-(piperazin-1-yl)-2,3,4,5-tetrahydro-1H-1-benzazepine-2-one]",165 °C (dec.)
10,"COc1ccc2c(c1)N(C(=O)OC(C)(C)C)C(=O)C(C(=O)OC(C)(C)C)CC2 (racemic) [Example 23, 1-tert-Butoxycarbonyl-3(R,S)-tert-butoxycarbonyl-8-methoxy-2,3,4,5-tetrahydro-1H-1-benzazepine-2-one]",91 to 92 °C
11,"CCN1C(=O)C(Br)(C(=O)OC)CCc2cc(Br)c(OC)cc21 (racemic) [Example 27, 3,7-Dibromo-1-ethyl-3(R,S)-methoxycarbonyl-8-methoxy-2,3,4,5-tetrahydro-1H-1-benzazepine-2-one]",71 to 73 °C (dec.)
12,"COc1cc2c(cc1Br)CCC(C(=O)OC(C)(C)C)C(=O)N2Cc1cccc(F)c1 (racemic) [Example 30, 7-Bromo-3(R,S)-tert-butoxycarbonyl-1-(3-fluorobenzyl)-8-methoxy-2,3,4,5-tetrahydro-1H-1-benzazepine-2-one]",146 to 148 °C
13,"COc1cc2c(cc1Br)CCC(C(=O)OC(C)(C)C)C(=O)N2 (racemic) [Example 32, 7-Bromo-3(R,S)-tert-butoxycarbonyl-8-methoxy-2,3,4,5-tetrahydro-1H-1-benzazepine-2-one]",207 to 208 °C
14,"COc1ccc2c(c1)NC(=O)CCC2 [Example 2, 8-Methoxy-2,3,4,5-tetrahydro-1H-1-benzazepine-2-one]",105 to 106 °C
15,"CCN1C(=O)CCCc2cc(Br)c(OC)cc21 [Example 9, 7-Bromo-1-ethyl-8-methoxy-2,3,4,5-tetrahydro-1H-1-benzazepine-2-one]",133 to 135 °C
16,"COc1cc2c(cc1Br)CCCC(=O)N2 [Example 24, 7-Bromo-8-methoxy-2,3,4,5-tetrahydro-1H-1-benzazepine-2-one]",180 to 182 °C
17,"O=C1CCCc2ccc(O)cc2N1 [Example 33, 8-Hydroxy-2,3,4,5-tetrahydro-1H-1-benzazepine-2-one]",226 to 227 °C

# Source: patent US6514965B1, “Substituted 1-benzazepines and derivatives thereof” (Antex Pharma Inc., priority 1999, dated 2003)
